Columns and labels:
[1] = Plasma levels of codeine in rats after intravenous or intranasal administration (HPLC)
Procedure: One hundred μL of rat plasma was treated with 100 μL of acetonitrile to precipitate the proteins. This mixture was centrifuged for 5 minutes at 5,000×g. The clear supernatant was injected onto the HPLC column.
The HPLC system included the following:
Column: Altex 5 micron Ultrasphere, 4.6 mm×25 cm
Mobile Phase: Acetonitrile: 0.01 M Acetate buffer (pH 4.0)−50:50
Standard Curve: See FIG. 1

[2] = Penetration of codeine into CSF of rats after intravenous or intranasal administration (HPLC); conditions: 60 minutes post-dose
Procedure: At 60 minutes post-dose, the rats were sacrificed, and the CSF (0.1 ml) was recovered and injected directly onto the HPLC column.

[3] = in vivo; cited from earlier work
[4] = rat, plasma, inhaled or intranasal, 10 mg/kg
[5] = rat, plasma, other: intranasal, 5 mg/kg
[6] = rat, plasma, other: intranasal, 10 mg/kg

Question: For `COc1ccc2c3c1O[C@H]1[C@@H](O)C=C[C@H]4[C@@H](C2)N(C)CC[C@@]341` [Codeine], which AUC(0-t) ([1]; rat, plasma, inhaled or intranasal, 5 mg/kg) is on record?
Answer: The AUC(0-t) was 1480 ng·h/mL.

Question: And the AUC(0-t) [1, 4]?
Answer: The AUC(0-t) was 2840 ng·h/mL.

Question: What about the bioavailability [1, 4] of the same compound?
Answer: The bioavailability was 115%.

Question: What about the AUC(0-t) ([1]; rat, plasma, iv, 10 mg/kg) of the same compound?
Answer: The AUC(0-t) was 2460 ng·h/mL.

Question: And the concentration at 0 min ([1]; rat, plasma, iv, 10 mg/kg)?
Answer: Its concentration at 0 min is 19400 ng/mL.

Question: And the concentration at 2 min ([1]; rat, plasma, iv, 10 mg/kg)?
Answer: The concentration at 2 min was 9400 ng/mL.

Question: And the concentration at 5 min ([1]; rat, plasma, iv, 10 mg/kg)?
Answer: Its concentration at 5 min is 5200 ng/mL.

Question: What about the concentration at 10 min ([1]; rat, plasma, iv, 10 mg/kg) of the same compound?
Answer: The concentration at 10 min was 2700 ng/mL.

Question: What about the concentration at 20 min ([1]; rat, plasma, iv, 10 mg/kg) of the same compound?
Answer: Its concentration at 20 min is 2040 ng/mL.

Question: What about the concentration at 40 min ([1]; rat, plasma, iv, 10 mg/kg) of the same compound?
Answer: Its concentration at 40 min is 1220 ng/mL.

Question: And the concentration at 60 min ([1]; rat, plasma, iv, 10 mg/kg)?
Answer: The concentration at 60 min was 860 ng/mL.

Question: What about the concentration at 0 min [1, 5] of the same compound?
Answer: The concentration at 0 min was 0 ng/mL.

Question: And the concentration at 2 min [1, 5]?
Answer: Its concentration at 2 min is 840 ng/mL.

Question: And the concentration at 5 min [1, 5]?
Answer: The concentration at 5 min was 2880 ng/mL.

Question: And the concentration at 10 min [1, 5]?
Answer: The concentration at 10 min was 3150 ng/mL.

Question: And the concentration at 20 min [1, 5]?
Answer: The concentration at 20 min was 2240 ng/mL.

Question: And the concentration at 40 min [1, 5]?
Answer: The concentration at 40 min was 600 ng/mL.

Question: And the concentration at 60 min [1, 5]?
Answer: Its concentration at 60 min is 560 ng/mL.

Question: And the concentration at 0 min [1, 6]?
Answer: Its concentration at 0 min is 0 ng/mL.

Question: And the concentration at 2 min [1, 6]?
Answer: Its concentration at 2 min is 1400 ng/mL.

Question: What about the concentration at 5 min [1, 6] of the same compound?
Answer: The concentration at 5 min was 5100 ng/mL.

Question: What about the concentration at 10 min [1, 6] of the same compound?
Answer: Its concentration at 10 min is 7620 ng/mL.

Question: And the concentration at 20 min [1, 6]?
Answer: Its concentration at 20 min is 3320 ng/mL.

Question: And the concentration at 40 min [1, 6]?
Answer: Its concentration at 40 min is 1420 ng/mL.

Question: And the concentration at 60 min [1, 6]?
Answer: Its concentration at 60 min is 1100 ng/mL.

Question: And the “Absorption following intranasal administration compared with intravenous” value ([1]; rats, IN vs IV)?
Answer: The value was “rapidly and completely absorbed”.

Question: And the “CSF levels for 5 mg/kg intranasally compared with 10 mg/kg intravenously” value [2]?
Answer: The value was “much higher”.

Question: And the Half-life in plasma [3]?
Answer: Its Half-life in plasma is 2 to 4 h.
